Laboratory results from PubChem BioAssay AID179 (DTP/NCI, 2004).
The source made the active and inactive calls.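 The calls were made as follows: active = compounds giving half or more protection of infected cells from virus-caused growth loss, again on retest; inactive = the rest.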 Where a SMILES comes first, the peptide text is derived from it.

System: CEM cells HIV-1 protection, formazan growth assay
Test: NCI AIDS Antiviral Assay
Conditions: for IC50: measured here: growth of uninfected CEM cells
In short: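 Human CEM cells, uninfected and HIV-1-infected, received five drug concentrations, and growth was read by soluble formazan assay. Compounds giving at least 50% protection were retested; reproducible 100% protection defined confirmed active.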

Compound	EC50 [µM]	IC50 [µM]	outcome
COc1c(Sc2c(SCSc3cnc4ccccc4c3Sc3cnc4ccccc4c3OC)cnc3ccccc23)cnc2ccccc12	> 100	> 100	
O=C1OC(c2ccccc2)c2ccsc2-n2cccc21 (stereo unspecified)	> 200	123	
CC(=O)OC12c3ccccc3C(c3ccccc31)C1C(=O)N(c3ccccn3)C(=O)C12 (stereo unspecified)	> 200	> 200	
CC1(C)OCC(C(O)C2OC(C)(C)OC2/C=N\O)O1 (stereo unspecified)	> 912	> 912	
COc1ccc(/C(O)=C/c2nc3ccccc3n2C)cc1	> 178	74.1	
CON(C)C(C#N)=C(C#N)C#N	> 200	> 200	
COc1ccc(/C=N/Nc2nc3ccccc3c(=O)n2-c2ccccc2)cc1	> 200	> 200	
CC(C)(C)C(C)(C)SSC(C)(C)C(C)(C)C	> 200	> 200	
NC(=O)CC(NC(=O)OCc1ccccc1)C(=O)NC(Cc1ccccc1)C(=O)NC(Cc1ccccc1)NC(=O)C(Cc1c[nH]c2ccccc12)C(=O)O (stereo unspecified)	> 50.1	> 50.1	
CC(CCC=C(c1cc(Cl)c(O)c(C(=O)O)c1)c1cc(Cl)c(O)c(C(=O)O)c1)C1CCC2[C@@H]3CC[C@@H]4CC(F)(F)CC[C@]4(C)C3CC[C@]12C (stereo partly specified)	> 170	38	
CC1C(O)O[C@@H]2O[C@@]3(C)CC[C@H]4[C@H](C)CC[C@@H]1[C@@]24O3 (stereo partly specified)	> 200	> 200	
CC(CN1CC(=O)NC(=O)C1)N1CC(=O)NC(=O)C1 (stereo unspecified)	> 468	40.7	
O=c1n(-c2ccccc2)c(=O)n2n1Cc1cc3ccccc3cc1-2	> 79.4	> 79.4	
COc1cc(C2c3cc4c(cc3OC(N3CCCC3)C2C)OCO4)cc(OC)c1O (stereo unspecified)	> 200	6.03	
CC(C)CC(NC(=O)C(Cc1cnc[nH]1)NC(=O)C(CC(N)=O)NC(=O)C(NC(=O)C(CO)NC(=O)C(Cc1ccc(O)cc1)NC(=O)C(CO)NC(=O)C(C)NC(=O)C(N)CCCCN)C(C)O)C(=O)O (stereo unspecified) (H-KASYSTNHL-OH; configuration not given here)	> 61.7	> 61.7	
CO[C@H]1C[C@](C)(O)Cc2cc3c(c(O)c21)C(=O)c1c(O)cc2c(c1C3=O)O[C@@H]1O[C@@]2(C)[C@H](O)[C@@H](N(C)C)[C@@H]1O	> 6.92	0.0468	
CC(=O)c1cc(S(=O)(=O)c2ccc(O)c(C(C)=O)c2)ccc1O	> 200	42.7	
Nc1c(N=Nc2ccc([N+](=O)[O-])cc2)c(S(=O)(=O)O)cc2cc(S(=O)(=O)O)c(N=Nc3ccccc3)c(O)c12	> 151	> 151	
Cc1c(C#N)c(N)[nH]c(=S)c1C#N	> 200	> 200	
Cc1nn(-c2cc(Cl)ccc2[N+](=O)[O-])c(C)c1Cl	> 200	166	
O=C1NC(=O)c2ccc([N+](=O)[O-])c3cccc1c23	> 0.871	0.1	
Cc1cc(Br)c(O)c(-c2cscn2)c1	> 200	11.2	
Cc1oc(N)c(C#N)c1C			inactive
COC(=O)/C(=N/O)C(C(=O)OC)C(=O)C(=O)Nc1c(Cl)cc(C)cc1S(=O)(=O)O (stereo unspecified)	> 550	> 550	
CN1CCN(C(=S)N(C(=O)c2ccc(Cl)cc2)C2CCCCC2)CC1	> 95.5	45.7	
O=C(NC1CCC(=O)N1C(=O)OCc1ccccc1)OCc1ccccc1 (stereo unspecified)	> 200	> 200	
COc1ccc2c(c1)C(=O)OCCC2	> 200	> 200	

Compound	EC50 [µM]	IC50 [µM]	outcome
Cc1ccc([N+](=O)[O-])cc1NC(=O)/C(=N/NC(=S)NN)C1SC(=S)NC1=O (stereo unspecified)	> 302	> 302	
COc1ccc(CCNCCCC2c3ccccc3-c3ccccc32)cc1OC	> 87.1	4.9	
Cn1c(=O)nc2n(-c3ccc(O)cc3)c3ccccc3nc-2c1=O			inactive
O=C1NCN(C2CCCCC2)CN1	> 200	> 200	
CC(C)C(O)(C(=O)OCN1C(=O)C2C3C=CC(C2C1=O)C1C2C(=O)N(COC(=O)C(O)(C(C)C)C(C)O)C(=O)C2C31)C(C)O (stereo unspecified)	> 200	> 200	
CCOS(=O)(=O)c1ccc(-c2c3nc(c(-c4ccc(S(=O)(=O)OCC)cc4)c4ccc([nH]4)c(-c4ccc(S(=O)(=O)OCC)cc4)c4nc(c(-c5ccc(S(=O)(=O)OCC)cc5)c5ccc2[nH]5)C=C4)C=C3)cc1	> 100	> 100	
Nc1c(-c2ccccc2)c2ccc([N+](=O)[O-])cc2c(=O)n1-c1cccc(C(=O)O)c1	> 200	135	
COCO[C@@H]1C[C@H]2C(=O)Nc3ccccc3C(=O)N2C1	> 200	38	
CC1=NN(c2ccccc2)C(=O)C1C(=O)C(=O)Nc1ccc(C)cc1C (stereo unspecified)		102	inactive
O=c1[nH]c(Nc2nc3ccccc3[nH]2)nc2c1CCC2	> 200	> 200	
CCc1cccc(C(C)CC)c1NC(=O)C(=O)C(CC(=O)Nc1ccc(Cl)c(Cl)c1)C(=O)OC (stereo unspecified)	> 186	> 186	
CCc1cccc(CC)c1NC(=O)C(C#N)C1=C(Cl)C(=O)c2ccccc2C1=O (stereo unspecified)	> 17.8	11.5	
C=C(C)[C@@H]1CC[C@]2(COC(=O)CC(C)CC(=O)O)CC[C@]3(C)[C@H](CC[C@@H]4[C@@]5(C)CC[C@H](OC(=O)CC(C)CC(=O)O)C(C)(C)[C@@H]5CC[C@]43C)[C@@H]12 (stereo partly specified)	> 200	19.1	
COc1ccc2c(c1)CCc1c-2n(CCN2CCCCC2)c2ccc(OC)cc12	> 100	> 100	
Cn1c(-c2csc(-c3ccc(Cl)cc3)n2)n[nH]c1=S	> 200	> 200	
O=c1n(-c2ccccc2)c(=O)n2n1C1Cc3ccccc3C12 (stereo unspecified)			inactive
COC1=CC(=O)C(=O)c2ccc(C)nc21			inactive
CC1OC(O[C@H]2/C=C/C=C/C=C/C=C/C=C/C=C/C=C/[C@H](C)[C@@H](O)[C@@H](C)[C@H](C)OC(=O)C[C@H](O)C[C@H](O)CC[C@@H](O)[C@H](O)C[C@H](O)C[C@]3(O)C[C@H](O)[C@@H](C(=O)O)[C@H](C2)O3)C(O)C(N)C1O (stereo partly specified)	> 4.9		
O=C(CC(O)(C(F)(F)F)C(F)(F)F)c1cccc(Cl)c1	> 200	182	
CN(C)c1ccc(C2=C([O-])c3cc(-[n+]4ccccc4)ccc3C2=O)cc1	> 200	178	
CCN(CC)CC(=O)Nc1ccc(Cl)cc1Cc1ccccc1	> 200	91.2	
CCOC(=O)[C@@]12C[C@](/C=C/OC)(O[Si](C)(C)C)[C@@]13c1cc(OC)c(OC)cc1CCN3C(=O)C2O (stereo partly specified)	> 200	> 200	
Cc1coc2c1[C@@H](O)[C@@]1(C)[C@H](CCC[C@@H]1C)C2	> 200	35.5	
CC1=Nc2ccccc2C12C(c1ccccc1)CC(=O)N1c3ccccc3CC12 (stereo unspecified)	> 33.9	> 33.9	
O=c1c(Sc2c(O)c3ccccc3c3ccccc3c2=O)c(O)c2ccccc2c2ccccc12			inactive
CC/C(=C(\C#N)c1ccc(Cl)cc1)c1ccc(OCCN(CC)CC)cc1	> 100	2.82	
O=C(CNc1c(Cl)cccc1Cl)NC1C=Cc2ccc(S(=O)(=O)Nc3c(Cl)cccc3Cl)cc2C1=O (stereo unspecified)	> 200	123	

Compound	EC50 [µM]	IC50 [µM]	outcome
CCOC(=O)CN1C(=O)C(=O)N(c2ccc(OC)c3ccccc23)C1=O	> 200	> 200	
Cc1cccc(C(C)O)n1 (stereo unspecified)	> 200	> 200	
COc1ccc([N-]/C(=N\n2c(=O)c(C)nn(C)c2=S)N(c2ccc(OC)cc2)c2nn3c(=O)c(C)n[n+](C)c3s2)cc1			inactive
COC(=O)c1cc(Br)c(C(=O)C(Cl)(Cl)Cl)[nH]1	> 200	> 200	
CCOP(=O)(OCC)/C(C#N)=C/c1cccn1N(C)C	> 257	245	
c1ccc(CCN(CCc2ccccn2)CCc2ccccn2)cc1			inactive
CCC1CCC2c3c([nH]c4ccccc34)C3C(=O)N(c4ccc(OC)cc4)C(=O)C3C2C1 (stereo unspecified)	33.9	> 200	
CCCCNC(=S)/C(C#N)=C1\Nc2ccccc2O1	> 200	32.4	
CN(CCC(N)CC(=O)NC1C=CC(n2ccc(N)nc2=O)OC1C(=O)O)C(=N)N (stereo unspecified)	> 200	31.6	inactive
CC(=O)Nc1c(C#N)c2n(c1C(=O)O)CCC2	> 200	> 200	
Cc1cc2c(cc1C)[n+](=O)c(N1CCN(c3ccc([N+](=O)[O-])cc3)CC1)c(C#N)n2[O-]	> 50.1	> 50.1	
COC(=O)CNC(=O)CNC(=O)CSc1nnc(COc2ccc(Cl)cc2)n1-c1ccccc1	> 200	30.9	
O=C1/C(=C/c2cccc(O)c2)SC(=S)N1/C=C\c1nc2ccccc2[nH]c1=O	> 200	81.3	
CC12CCC(C1)C(O)(c1ccccc1)C2(O)c1ccccc1 (stereo unspecified)	> 60.3	44.7	
COC(=O)c1cc(OS(=O)(=O)C(F)(F)F)c(=O)n2c1CCCC2	> 200	89.1	
Cc1ccc(S(=O)(=O)N2c3ccccc3[C@H]3CCc4c([nH]c5ccccc45)[C@H]32)cc1	35.5	> 100	
O=C1c2ccccc2[Se](=O)N1c1ccccc1 (stereo unspecified)	1.17	14.1	
C=C=C(C(=O)OC)S(=O)c1ccc([N+](=O)[O-])cc1[N+](=O)[O-] (stereo unspecified)			inactive
CN1C(=O)C23CCCN2C(=O)C1(C)SC(=N)S3 (stereo unspecified)	> 200	> 200	
N=C(N)SCc1ccc2c(c1)Sc1ccccc1O2	> 200	11.7	
N#CCN1CCOCCOCCN(CC#N)CCOCCOCC1			inactive
Brc1ccc(C=NC23CC4CC(CC(C4)C2)C3)cc1	> 56.2	> 56.2	
Cc1cc2c(cc1Cl)SC(NNC(=O)c1ccncc1)=NS2(=O)=O	> 200	> 200	
O=C1[C@@H]2[C@H](C(=O)N1c1ccccc1)[C@H]1CC[C@H]2N1C(=O)c1ccccc1	> 55	> 55	
CC(C)CNC(=S)N/N=C\c1ccncc1	> 200	105	
COc1cccc2c1C(=N)c1c(O)c3c(c(O)c1C2=O)C[C@@](O)(C(C)=O)C[C@@H]3OC1CC(N)C(O)C(C)O1 (stereo partly specified)	> 0.2	0.00631	
